Tests used:
[1] = biological target: PI3-kinase p110-delta/p85-alpha (Homo sapiens, UniProt O00329)
Description: Inhibition of recombinant human N-terminal His-tagged full length p110delta/recombinant human full length p85alpha using PIP2 as substrate preincubated for 30 mins followed by substrate addition by HTRF assay

[2] = Drug metabolism in rat liver microsomes assessed as disappearance of parent compound at 5 uM preincubated for 3 mins followed UDPG addition and measured after 120 mins by UPLC-MS/MS analysis; format: ADME, microsome; conditions: read-out: Drug metabolism
[3] = biological target: PI3-kinase p110-alpha/p85-alpha (Homo sapiens, UniProt P42336)
Description: Inhibition of recombinant human N-terminal His6-tagged full length p110alpha/recombinant human full length p85alpha using PIP2 as substrate preincubated for 30 mins followed by substrate addition by HTRF assay

[4] = Drug metabolism in human liver microsomes assessed as disappearance of parent compound at 5 uM after 30 mins in presence of NADPH by UPLC-MS/MS analysis; format: ADME, microsome; conditions: read-out: Drug metabolism
[5] = Drug metabolism in human liver microsomes assessed as disappearance of parent compound at 5 uM preincubated for 3 mins followed UDPG addition and measured after 120 mins by UPLC-MS/MS analysis; format: ADME, microsome; conditions: read-out: Drug metabolism
PI3K p110 beta/p85 alpha = PI3K p110 beta/p85 alpha (Homo sapiens, UniProt P42338)
Description: Inhibition of recombinant human N-terminal His6-tagged full length p110beta/recombinant human full length p85alpha using PIP2 as substrate preincubated for 30 mins followed by substrate addition and HTRF assay

[6] = Drug metabolism in rat liver microsomes assessed as disappearance of parent compound at 5 uM after 30 mins in presence of NADPH by UPLC-MS/MS analysis; format: ADME, microsome; conditions: read-out: Drug metabolism
[7] = biological target: Phosphatidylinositol 4,5-bisphosphate 3-kinase catalytic subunit gamma isoform (Homo sapiens, UniProt P48736); experiment: Inhibition of recombinant human N-terminal His6-tagged full length p110gamma using PIP2 as substrate preincubated for 30 mins followed by substrate addition by HTRF assay
Rattus norvegicus [8] = experiment: (§1) Anti-inflammatory activity in Brown Norway rat model of ovalbumin-induced inflammation assessed inhibition of eosinophil infiltration in bronchoalveolar lavage at 0.3 mg/kg, it administered 1 hr before ovalbumin aerosol challenge and measured 24 hrs post challenge by hematology analysis relative to control; format: functional; conditions: inhaled or nasal
Rattus norvegicus [9] = experiment: as §1, with “neutrophil” for “eosinophil”; format: functional; conditions: inhaled or nasal

Chain of Phosphatidylinositol 4,5-bisphosphate 3-kinase catalytic subunit gamma isoform (P48736 whole entry, canonical isoform): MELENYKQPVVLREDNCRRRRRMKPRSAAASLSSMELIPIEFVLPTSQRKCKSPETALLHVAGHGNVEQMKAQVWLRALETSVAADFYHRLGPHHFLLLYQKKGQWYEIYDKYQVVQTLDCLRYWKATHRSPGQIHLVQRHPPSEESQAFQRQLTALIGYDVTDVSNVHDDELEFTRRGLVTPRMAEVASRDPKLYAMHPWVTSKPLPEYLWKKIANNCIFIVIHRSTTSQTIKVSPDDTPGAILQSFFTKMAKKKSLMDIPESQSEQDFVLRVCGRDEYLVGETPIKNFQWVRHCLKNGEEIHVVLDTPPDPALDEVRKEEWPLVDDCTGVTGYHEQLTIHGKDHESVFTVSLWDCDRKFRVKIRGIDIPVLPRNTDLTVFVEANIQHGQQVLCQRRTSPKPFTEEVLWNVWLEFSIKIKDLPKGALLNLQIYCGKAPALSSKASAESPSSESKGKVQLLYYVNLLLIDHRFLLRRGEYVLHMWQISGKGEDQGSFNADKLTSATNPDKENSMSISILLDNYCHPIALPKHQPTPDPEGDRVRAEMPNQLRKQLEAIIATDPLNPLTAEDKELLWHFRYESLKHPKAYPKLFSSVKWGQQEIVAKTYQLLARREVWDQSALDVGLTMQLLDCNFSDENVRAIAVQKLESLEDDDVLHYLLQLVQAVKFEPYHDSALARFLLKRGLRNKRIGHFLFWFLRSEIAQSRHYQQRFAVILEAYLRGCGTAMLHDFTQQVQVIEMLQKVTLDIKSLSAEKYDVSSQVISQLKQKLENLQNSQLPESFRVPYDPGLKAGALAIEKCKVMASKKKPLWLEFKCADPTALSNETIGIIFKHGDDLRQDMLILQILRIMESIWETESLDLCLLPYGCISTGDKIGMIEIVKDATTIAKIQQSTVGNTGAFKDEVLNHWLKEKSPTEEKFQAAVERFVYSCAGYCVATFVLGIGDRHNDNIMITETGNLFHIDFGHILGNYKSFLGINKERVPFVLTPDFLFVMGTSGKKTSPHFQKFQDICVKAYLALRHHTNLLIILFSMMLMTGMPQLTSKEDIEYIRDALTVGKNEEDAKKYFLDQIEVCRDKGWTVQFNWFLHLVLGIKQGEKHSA
Chain of PI3-kinase p110-alpha/p85-alpha (P27986 whole entry): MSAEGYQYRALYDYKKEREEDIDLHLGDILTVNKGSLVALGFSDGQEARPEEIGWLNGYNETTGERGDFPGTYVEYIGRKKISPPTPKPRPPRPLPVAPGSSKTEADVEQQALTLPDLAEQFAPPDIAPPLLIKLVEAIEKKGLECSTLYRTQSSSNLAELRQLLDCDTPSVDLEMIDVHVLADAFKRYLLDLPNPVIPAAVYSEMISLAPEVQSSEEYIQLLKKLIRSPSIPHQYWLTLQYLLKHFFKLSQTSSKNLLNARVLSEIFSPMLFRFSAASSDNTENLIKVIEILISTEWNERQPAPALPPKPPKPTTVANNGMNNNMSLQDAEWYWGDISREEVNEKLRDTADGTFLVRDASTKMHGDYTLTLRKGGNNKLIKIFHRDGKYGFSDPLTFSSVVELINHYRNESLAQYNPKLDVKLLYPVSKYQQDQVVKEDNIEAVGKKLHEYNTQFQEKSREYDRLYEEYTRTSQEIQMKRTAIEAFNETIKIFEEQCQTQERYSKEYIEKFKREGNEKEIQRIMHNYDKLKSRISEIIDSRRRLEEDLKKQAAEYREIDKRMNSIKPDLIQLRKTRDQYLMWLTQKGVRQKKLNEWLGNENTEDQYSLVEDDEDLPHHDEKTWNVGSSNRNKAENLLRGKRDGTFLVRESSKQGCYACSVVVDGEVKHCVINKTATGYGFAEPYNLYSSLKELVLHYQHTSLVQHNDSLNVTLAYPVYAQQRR
Chain of PI3-kinase p110-alpha/p85-alpha (P42336 whole entry): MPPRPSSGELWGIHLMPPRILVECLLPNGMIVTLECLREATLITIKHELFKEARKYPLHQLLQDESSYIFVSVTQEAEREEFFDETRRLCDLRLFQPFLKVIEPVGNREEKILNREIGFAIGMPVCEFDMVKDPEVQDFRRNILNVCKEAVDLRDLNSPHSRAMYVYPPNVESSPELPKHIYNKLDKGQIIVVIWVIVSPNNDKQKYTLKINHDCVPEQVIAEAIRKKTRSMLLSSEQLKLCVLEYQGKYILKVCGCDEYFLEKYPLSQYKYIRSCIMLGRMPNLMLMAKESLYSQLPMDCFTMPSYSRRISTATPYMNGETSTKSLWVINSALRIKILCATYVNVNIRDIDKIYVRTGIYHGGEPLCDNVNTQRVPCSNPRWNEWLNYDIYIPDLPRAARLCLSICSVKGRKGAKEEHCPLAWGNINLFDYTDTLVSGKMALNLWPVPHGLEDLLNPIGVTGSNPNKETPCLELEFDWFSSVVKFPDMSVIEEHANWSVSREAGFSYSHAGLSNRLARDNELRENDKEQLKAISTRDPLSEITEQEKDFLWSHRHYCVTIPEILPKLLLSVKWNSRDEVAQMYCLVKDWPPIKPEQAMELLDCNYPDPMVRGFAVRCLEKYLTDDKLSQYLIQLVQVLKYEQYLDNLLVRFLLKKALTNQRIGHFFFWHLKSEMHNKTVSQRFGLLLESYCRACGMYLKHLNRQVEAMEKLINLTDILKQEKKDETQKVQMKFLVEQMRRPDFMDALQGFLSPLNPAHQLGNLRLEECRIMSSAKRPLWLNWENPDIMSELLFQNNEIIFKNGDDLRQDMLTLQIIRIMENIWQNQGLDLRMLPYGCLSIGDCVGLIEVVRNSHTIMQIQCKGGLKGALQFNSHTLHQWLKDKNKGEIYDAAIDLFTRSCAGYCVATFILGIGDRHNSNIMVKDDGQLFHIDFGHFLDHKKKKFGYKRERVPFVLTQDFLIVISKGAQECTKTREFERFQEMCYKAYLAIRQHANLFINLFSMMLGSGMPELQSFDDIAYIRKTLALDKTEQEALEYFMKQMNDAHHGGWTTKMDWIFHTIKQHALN
Chain of PI3K p110 beta/p85 alpha (P27986 whole entry): as the sequence (P27986 whole entry) above
Chain of PI3K p110 beta/p85 alpha (P42338 whole entry): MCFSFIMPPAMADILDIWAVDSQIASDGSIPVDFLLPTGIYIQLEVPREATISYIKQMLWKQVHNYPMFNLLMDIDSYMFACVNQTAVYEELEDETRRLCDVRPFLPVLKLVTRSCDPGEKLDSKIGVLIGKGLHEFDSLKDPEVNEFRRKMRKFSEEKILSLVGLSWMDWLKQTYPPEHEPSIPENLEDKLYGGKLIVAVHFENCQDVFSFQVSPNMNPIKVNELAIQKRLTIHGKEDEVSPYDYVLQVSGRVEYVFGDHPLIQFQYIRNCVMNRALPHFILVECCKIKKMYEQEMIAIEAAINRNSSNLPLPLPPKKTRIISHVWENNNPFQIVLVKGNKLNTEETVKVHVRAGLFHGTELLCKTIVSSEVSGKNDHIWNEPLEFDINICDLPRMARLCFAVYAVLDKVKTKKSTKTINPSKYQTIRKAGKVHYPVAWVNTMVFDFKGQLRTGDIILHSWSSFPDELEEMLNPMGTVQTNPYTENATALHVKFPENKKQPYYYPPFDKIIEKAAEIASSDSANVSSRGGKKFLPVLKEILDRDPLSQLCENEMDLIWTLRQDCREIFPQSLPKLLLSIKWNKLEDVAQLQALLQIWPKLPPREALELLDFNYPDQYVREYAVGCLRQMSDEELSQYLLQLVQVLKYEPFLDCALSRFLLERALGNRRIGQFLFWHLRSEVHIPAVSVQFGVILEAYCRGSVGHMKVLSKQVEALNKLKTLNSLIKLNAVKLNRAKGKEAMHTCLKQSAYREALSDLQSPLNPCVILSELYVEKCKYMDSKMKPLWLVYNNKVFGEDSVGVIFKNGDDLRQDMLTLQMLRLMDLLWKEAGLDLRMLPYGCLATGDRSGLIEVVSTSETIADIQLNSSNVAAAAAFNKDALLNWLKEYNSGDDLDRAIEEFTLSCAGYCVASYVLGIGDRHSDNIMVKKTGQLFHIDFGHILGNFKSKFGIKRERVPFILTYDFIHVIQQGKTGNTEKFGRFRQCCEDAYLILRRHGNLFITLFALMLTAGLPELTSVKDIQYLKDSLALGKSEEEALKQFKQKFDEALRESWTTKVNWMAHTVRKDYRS
Chain of PI3-kinase p110-delta/p85-alpha (P27986 whole entry): as the sequence (P27986 whole entry) above
Chain of PI3-kinase p110-delta/p85-alpha (O00329 whole entry): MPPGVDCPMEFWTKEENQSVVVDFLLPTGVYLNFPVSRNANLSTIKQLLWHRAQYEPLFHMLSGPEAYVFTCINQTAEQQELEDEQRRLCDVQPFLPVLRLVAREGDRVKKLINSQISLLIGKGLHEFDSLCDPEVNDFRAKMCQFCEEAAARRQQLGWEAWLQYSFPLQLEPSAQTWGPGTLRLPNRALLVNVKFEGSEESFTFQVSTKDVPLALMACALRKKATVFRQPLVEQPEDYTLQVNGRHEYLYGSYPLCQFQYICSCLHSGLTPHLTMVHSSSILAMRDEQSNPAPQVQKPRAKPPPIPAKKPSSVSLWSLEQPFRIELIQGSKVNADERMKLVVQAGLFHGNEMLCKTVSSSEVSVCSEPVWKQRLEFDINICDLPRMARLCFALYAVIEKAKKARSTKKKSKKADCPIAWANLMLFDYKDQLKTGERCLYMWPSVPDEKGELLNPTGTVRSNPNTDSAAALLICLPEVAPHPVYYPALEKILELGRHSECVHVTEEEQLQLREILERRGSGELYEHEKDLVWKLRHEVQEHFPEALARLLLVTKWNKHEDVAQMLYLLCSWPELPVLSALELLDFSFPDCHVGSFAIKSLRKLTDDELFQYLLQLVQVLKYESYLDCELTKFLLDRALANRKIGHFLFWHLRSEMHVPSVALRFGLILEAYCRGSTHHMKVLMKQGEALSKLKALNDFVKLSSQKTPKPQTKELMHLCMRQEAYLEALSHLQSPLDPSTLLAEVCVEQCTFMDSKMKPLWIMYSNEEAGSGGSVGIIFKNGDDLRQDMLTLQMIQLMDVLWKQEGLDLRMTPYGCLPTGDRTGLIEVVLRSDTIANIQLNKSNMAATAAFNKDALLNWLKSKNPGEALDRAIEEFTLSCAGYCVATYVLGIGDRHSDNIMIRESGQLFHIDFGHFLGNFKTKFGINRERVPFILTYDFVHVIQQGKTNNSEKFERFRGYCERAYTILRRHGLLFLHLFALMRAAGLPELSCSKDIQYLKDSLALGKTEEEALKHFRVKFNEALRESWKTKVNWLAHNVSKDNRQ

| IC50 [1] [µM] | metabolised at 2 h, 5 µM [2] [%] | IC50 [3] [µM] | metabolised at 0.5 h, 5 µM [4] [%] | metabolised at 2 h, 5 µM [5] [%] | IC50 (PI3K p110 beta/p85 alpha) [µM] | metabolised at 0.5 h, 5 µM [6] [%] | IC50 [7] [µM] | Structure (SMILES) | inhibition in vivo at 0.3 mg/kg (Rattus norvegicus [8]) [%] | inhibition in vivo at 0.3 mg/kg (Rattus norvegicus [9]) [%] |
| --- | --- | --- | --- | --- | --- | --- | --- | --- | --- | --- |
| 0.0002 | 83 | 0.56 | 55 | 97 | 0.057 | 54 |  | Cc1ccn2nc([C@H](C)Nc3ncnc(N)c3-c3cc(O)cc(Cl)c3)n(-c3ccccc3)c(=O)c12 |  |  |
| 0.001 |  | 2.3 |  |  | 0.12 |  | 0.065 | Cc1ccn2nc([C@H](C)Nc3ncnc(N)c3C#N)n(-c3ccccc3)c(=O)c12 |  |  |
| 0.0014 |  | 2.9 | 100 |  | 0.21 | 72 | 0.064 | Cc1ccn2nc([C@H](C)Nc3ncnc4[nH]cc(Cc5cccc(O)c5)c34)n(-c3ccccc3)c(=O)c12 |  |  |
| 0.0051 |  |  | 99 |  |  | 72 |  | Cc1ccn2nc([C@H](C)Nc3ncnc4[nH]cc(-c5ccccc5O)c34)n(-c3ccccc3)c(=O)c12 |  |  |
| 0.0002 |  | 0.31 |  |  | 0.01 |  | 0.0068 | Cc1ccn2nc([C@H](C)Nc3ncnc(N)c3-c3cc(O)cc(C(F)(F)F)c3)n(-c3ccccc3)c(=O)c12 |  |  |
| 0.011 |  |  |  |  | 1.3 |  | 0.43 | Cc1ccn2nc([C@H](C)Nc3ncnc(N)c3-c3ccc4oc(=O)[nH]c4c3)n(-c3ccccc3)c(=O)c12 |  |  |
| 0.0019 |  | 1 | 41 |  | 0.052 | 27 | 0.012 | Cc1ccn2nc([C@H](C)Nc3ncnc4[nH]cc(-c5cccc(F)c5O)c34)n(-c3ccccc3)c(=O)c12 |  |  |
| 0.0013 |  |  |  |  | 0.079 |  |  | Cc1ccn2nc([C@H](C)Nc3ncnc4[nH]cc(-c5cccc6cc[nH]c56)c34)n(-c3ccccc3)c(=O)c12 |  |  |
| 0.022 |  | 6.6 |  |  | 3 |  |  | Cc1ccn2nc([C@H](C)Nc3ncnc(N)c3Cc3cccc(O)c3)n(-c3ccccc3)c(=O)c12 |  |  |
|  |  |  |  |  |  |  | 0.015 | Cc1ccn2nc([C@H](C)Nc3ncnc(N)c3-c3cc(O)cc(NS(C)(=O)=O)c3)n(-c3ccccc3)c(=O)c12 |  |  |
| 0.0002 |  | 1.4 | 60 |  | 0.039 | 42 | 0.01 | Cc1ccn2nc([C@H](C)Nc3ncnc(N)c3C(=O)Nc3cccc(O)c3)n(-c3ccccc3)c(=O)c12 |  |  |
| 0.022 | 21 | 8.4 | 84 | 76 | 1.7 | 22 | 0.16 | Cc1ccn2nc([C@H](C)Nc3ncnc(N)c3-c3ccc(O)cc3)n(-c3ccccc3)c(=O)c12 |  |  |
| 0.0002 |  | 0.0012 |  |  | 0.0013 |  | 0.0003 | COc1cc(-c2c[nH]c3ncnc(N[C@@H](C)c4nn5ccc(C)c5c(=O)n4-c4ccccc4)c23)ccc1O |  |  |
| 0.002 |  | 1 |  |  | 0.23 |  | 0.013 | Cc1ccn2nc([C@H](C)Nc3ncnc4[nH]cc(C(=O)Nc5cccc(O)c5)c34)n(-c3ccccc3)c(=O)c12 |  |  |
|  |  |  |  |  |  | 16 |  | C[C@H](Nc1ncnc(N)c1C#N)c1nn2cccc2c(=O)n1-c1ccccc1 |  |  |
| 0.0002 |  | 0.009 |  |  | 0.0023 |  | 0.0006 | Cc1ccn2nc([C@H](C)Nc3ncnc4[nH]cc(-c5cc(O)cc(F)c5)c34)n(-c3ccccc3)c(=O)c12 |  |  |

| IC50 [1] [µM] | metabolised at 2 h, 5 µM [2] [%] | IC50 [3] [µM] | metabolised at 0.5 h, 5 µM [4] [%] | metabolised at 2 h, 5 µM [5] [%] | IC50 (PI3K p110 beta/p85 alpha) [µM] | metabolised at 0.5 h, 5 µM [6] [%] | IC50 [7] [µM] | Structure (SMILES) | inhibition in vivo at 0.3 mg/kg (Rattus norvegicus [8]) [%] | inhibition in vivo at 0.3 mg/kg (Rattus norvegicus [9]) [%] |
| --- | --- | --- | --- | --- | --- | --- | --- | --- | --- | --- |
| 0.0002 |  | 0.41 | 92 |  | 0.012 | 74 | 0.017 | Cc1ccn2nc([C@H](C)Nc3ncnc4[nH]cc(-c5cccc6[nH]ccc56)c34)n(-c3ccccc3)c(=O)c12 |  |  |
|  |  |  | 27 | 6 | 0.36 |  | 0.12 | Cc1ccn2nc([C@H](C)Nc3ncnc(N)c3-c3cnc(N)nc3)n(-c3ccccc3)c(=O)c12 |  |  |
|  |  |  |  |  |  |  |  | C[C@@H]1C[C@H]2[C@@H]3C[C@H](F)C4=CC(=O)C=C[C@]4(C)[C@@]3(F)[C@@H](O)C[C@]2(C)[C@@]1(O)C(=O)SCF [FLUTICASONE] | 82 | 89 |
|  |  | 8.5 | 50 | 9.6 | 0.14 | 47 | 0.42 | Cc1ccn2nc([C@H](C)Nc3ncnc(N)c3-c3ccc4cc[nH]c4c3)n(-c3ccccc3)c(=O)c12 |  |  |
| 0.0018 |  | 8.4 | 100 |  | 0.95 | 94 | 0.045 | Cc1ccn2nc([C@H](C)Nc3ncnc(N)c3Sc3cccc(O)c3)n(-c3ccccc3)c(=O)c12 |  |  |
| 0.0002 | 6 | 0.23 | 91 | 91 | 0.022 | 36 | 0.0036 | Cc1ccn2nc([C@H](C)Nc3ncnc4[nH]cc(-c5cnn(C)c5)c34)n(-c3ccccc3)c(=O)c12 |  |  |
| 0.0003 |  | 0.19 | 74 |  | 0.029 | 23 | 0.0031 | Cc1ccn2nc([C@H](C)Nc3ncnc4[nH]cc(-c5cccc(NS(C)(=O)=O)c5)c34)n(-c3ccccc3)c(=O)c12 |  |  |
| 0.001 | 74 | 0.77 | 99 | 84 | 0.17 | 64 |  | Cc1ccn2nc([C@H](C)Nc3ncnc4[nH]cc(Sc5cccc(O)c5)c34)n(-c3ccccc3)c(=O)c12 |  |  |
| 0.0003 |  | 0.25 | 58 |  | 0.0073 | 21 | 0.0033 | Cc1ccn2nc([C@H](C)Nc3ncnc4[nH]cc(-c5cc(C(F)(F)F)ccc5O)c34)n(-c3ccccc3)c(=O)c12 |  |  |
| 0.0006 | 26 | 1.9 | 84 | 74 | 0.11 | 75 | 0.04 | Cc1ccn2nc([C@H](C)Nc3ncnc(N)c3-c3cc(O)cc(F)c3)n(-c3ccccc3)c(=O)c12 |  |  |
| 0.0002 | 44 | 0.76 | 99 | 90 | 0.014 | 58 | 0.081 | COc1cccc(-c2c[nH]c3ncnc(N[C@@H](C)c4nn5ccc(C)c5c(=O)n4-c4ccccc4)c23)c1O |  |  |
| 0.0004 |  |  | 97 |  | 0.0043 | 21 |  | Cc1ccn2nc([C@H](C)Nc3ncnc4[nH]cc(-c5cn[nH]c5)c34)n(-c3ccccc3)c(=O)c12 |  |  |
| 0.0003 |  | 0.73 | 97 |  | 0.037 | 32 | 0.0017 | Cc1ccn2nc([C@H](C)Nc3ncnc(N)c3-c3cccc(NS(C)(=O)=O)c3)n(-c3ccccc3)c(=O)c12 |  |  |
| 0.0004 |  | 0.11 |  |  | 0.0041 |  | 0.0007 | Cc1ccn2nc([C@H](C)Nc3ncnc4[nH]cc(-c5ccc(O)cc5)c34)n(-c3ccccc3)c(=O)c12 |  |  |
| 0.0002 | 28 | 0.022 | 67 | 94 | 0.0025 | 16 | 0.0007 | Cc1ccn2nc([C@H](C)Nc3ncnc4[nH]cc(-c5cc(O)cc(NS(C)(=O)=O)c5)c34)n(-c3ccccc3)c(=O)c12 |  |  |

Source: ChEMBL document CHEMBL4152386, “Discovery of a Novel Inhaled PI3Kδ Inhibitor for the Treatment of Respiratory Diseases” (J Med Chem, 2018)
